Results published in US20150299188A1, “HETEROCYCLIC COMPOUND” (priority 2012, published 2015).

System: FLAP (5-lipoxygenase activating protein)
Experiment: In vitro binding test: displacement of [3H]-7-chloro-3-(5-((3-fluoropyridin-2-yl)methoxy)-2-methylphenyl)-3,4-dihydroquinazolin-2(1H)-one from Sf9 microsome fractions
Parameters: species or system human and mouse
Details: Sf9 microsome fractions expressing FLAP; 100% = radioligand binding with 10 μM sodium 3-(3-(tert-butylsulfanyl)-1-(4-chlorobenzyl)-5-isopropyl-1H-indol-2-yl)-2,2-dimethylpropanoate, 0% = DMSO; test compound concentration not given
Summary of the method: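 Sf9 microsomes expressing human or mouse FLAP (2 μg/mL) preincubated with compound 10 min at room temperature, then 120 nM tritiated quinazolinone ligand added for 60 min; buffer 100 mM Tris-HCl pH 7.5 with NaCl, EDTA, DTT, glycerol, Tween20. Bound ligand filtered and counted by scintillation; 10 μM indole propanoate defines 100% inhibition, DMSO 0%.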

| Structure (SMILES) | inhibitory rate (%) |
| --- | --- |
| Cc1ccc(OCc2ncccc2F)cc1N1Cc2c(Cl)cccc2NC1=O [Example 242, 5-chloro-3-(5-((3-fluoropyridin-2-yl)methoxy)-2-methylphenyl)-3,4-dihydroquinazolin-2(1H)-one] | 102 |
| COCCN1C(=O)N(c2cc(OCc3ncccc3F)ccc2C)Cc2c(Cl)cccc21 [Example 283, 5-chloro-3-(5-((3-fluoropyridin-2-yl)methoxy)-2-methylphenyl)-1-(2-methoxyethyl)-3,4-dihydroquinazolin-2(1H)-one] | 100 |
| Cn1cc2c(n1)CN(c1cc(OCc3ncccc3F)ccc1Br)C(=O)N2 [Example 264, 6-(2-bromo-5-((3-fluoropyridin-2-yl)methoxy)phenyl)-2-methyl-2,4,6,7-tetrahydro-5H-pyrazolo[4,3-d]pyrimidin-5-one] | 101 |
| Cc1ccc(OCc2ncccc2F)cc1N1Cc2c(cccc2C(F)(F)F)NC1=O [Example 297, 3-(5-((3-fluoropyridin-2-yl)methoxy)-2-methylphenyl)-5-(trifluoromethyl)-3,4-dihydroquinazolin-2(1H)-one] | 106 |
| Cc1ccc(OCc2ncccc2F)cc1N1Cc2c(ccnc2C#N)NC1=O [Example 321, 3-(5-((3-fluoropyridin-2-yl)methoxy)-2-methylphenyl)-2-oxo-1,2,3,4-tetrahydropyrido[4,3-d]pyrimidine-5-carbonitrile] | 90 |
| COCCOc1cnc(C(F)(F)F)c2c1NC(=O)N(c1cc3c(cc1C)CCC(c1ncccc1F)O3)C2 (stereo not shown) [Example 110, 3-(2-(3-fluoropyridin-2-yl)-6-methyl-3,4-dihydro-2H-chromen-7-yl)-8-(2-methoxyethoxy)-5-(trifluoromethyl)-3,4-dihydropyrido[4,3-d]pyrimidin-2(1H)-one] | 99 |
| Cc1cc2c(cc1N1Cc3ncccc3NC1=O)OC(c1ncccc1F)CC2 (stereo not shown) [Example 45, 3-(2-(3-fluoropyridin-2-yl)-6-methyl-3,4-dihydro-2H-chromen-7-yl)-3,4-dihydropyrido[3,2-d]pyrimidin-2(1H)-one] | 99 |
| O=c1[nH]c2cn(CC3CC3)nc2c(=O)n1-c1cc(OCc2ncccc2F)ccc1Br [Example 358, 6-(2-bromo-5-((3-fluoropyridin-2-yl)methoxy)phenyl)-2-(cyclopropylmethyl)-2H-pyrazolo[4,3-d]pyrimidine-5,7(4H,6H)-dione] | 101 |
| Cc1cc2c(cc1N1Cc3c(cc(-n4cc(CO)cn4)nc3C3CC3)NC1=O)OC(c1ncccc1F)CC2 (stereo not shown) [Example 123, 5-cyclopropyl-3-(2-(3-fluoropyridin-2-yl)-6-methyl-3,4-dihydro-2H-chromen-7-yl)-7-(4-(hydroxymethyl)-1H-pyrazol-1-yl)-3,4-dihydropyrido[4,3-d]pyrimidin-2(1H)-one] | 98 |
| Cc1ccc(OCc2c(F)cccc2F)cc1N1Cc2ccc(C(=O)N3CCCC(O)C3)cc2NC1=O (stereo not shown) [Example 205, 3-(5-((2,6-difluorobenzyl)oxy)-2-methylphenyl)-7-((3-hydroxypiperidin-1-yl)carbonyl)-3,4-dihydroquinazolin-2(1H)-one] | 77 |
| O=c1[nH]c2ccc(Br)c(Cl)c2c(=O)n1-c1cc(OCc2ncccc2F)ccc1Cl [Example 368, 6-bromo-5-chloro-3-(2-chloro-5-((3-fluoropyridin-2-yl)methoxy)phenyl)quinazoline-2,4(1H,3H)-dione] | 108 |
| O=C1Nc2cc(-c3nsc(=O)[nH]3)nc(C3CC3)c2CN1c1cc2c(cc1Cl)CCC(c1ncccc1F)O2 (stereo not shown) [Example 134, 3-(6-chloro-2-(3-fluoropyridin-2-yl)-3,4-dihydro-2H-chromen-7-yl)-5-cyclopropyl-7-(5-oxo-4,5-dihydro-1,2,4-thiadiazol-3-yl)-3,4-dihydropyrido[4,3-d]pyrimidin-2(1H)-one] | 91 |
| COc1cccc2c1CN(c1cc(OCc3ncccc3F)ccc1C)C(=O)N2 [Example 308, 3-(5-((3-fluoropyridin-2-yl)methoxy)-2-methylphenyl)-5-methoxy-3,4-dihydroquinazolin-2(1H)-one] | 85 |
| O=C1Nc2cc(OC(F)F)nc(C3CC3)c2CN1c1cc2c(cc1Cl)CC[C@@H](c1ncccc1F)O2 [Example 20, 3-((2S)-6-chloro-2-(3-fluoropyridin-2-yl)-3,4-dihydro-2H-chromen-7-yl)-5-cyclopropyl-7-(difluoromethoxy)-3,4-dihydropyrido[4,3-d]pyrimidin-2(1H)-one] | 96 |
| Cc1ccc(OCc2ncccc2F)cc1N1Cc2c(Cl)cc(C(=O)O)cc2NC1=O [Example 292, 5-chloro-3-(5-((3-fluoropyridin-2-yl)methoxy)-2-methylphenyl)-2-oxo-1,2,3,4-tetrahydroquinazoline-7-carboxylic acid] | 107 |
| Cc1ccc(OCc2ncccc2F)cc1N1Cc2ccc(C(=O)NC3CC3)cc2NC1=O [Example 261, N-cyclopropyl-3-(5-((3-fluoropyridin-2-yl)methoxy)-2-methylphenyl)-2-oxo-1,2,3,4-tetrahydroquinazoline-7-carboxamide] | 116 |

| Structure (SMILES) | inhibitory rate (%) |
| --- | --- |
| O=C1Nc2cc(Br)ccc2CN1c1cc(OCc2ncccc2F)ccc1C(F)(F)F [Example 301, 7-bromo-3-(5-((3-fluoropyridin-2-yl)methoxy)-2-(trifluoromethyl)phenyl)-3,4-dihydroquinazolin-2(1H)-one] | 104 |
| CC(C)(O)c1ccc2c(c1)NC(=O)N(c1cc(OCc3c(F)cccc3F)ccc1CC1CCCCC1)C2 [Example 289, 3-(2-(cyclohexylmethyl)-5-((2,6-difluorobenzyl)oxy)phenyl)-7-(2-hydroxypropan-2-yl)-3,4-dihydroquinazolin-2(1H)-one] | 80 |
| O=c1[nH]c2ccccc2c(=O)n1-c1cc(OCc2c(F)cccc2F)ccn1 [Example 324, 3-(4-((2,6-difluorobenzyl)oxy)pyridin-2-yl)quinazoline-2,4(1H,3H)-dione] | 50 |
| Cc1cc2c(cc1N1Cc3c(cc(C4CC4)nc3C3CC3)NC1=O)OC(c1ncccc1F)CC2 (stereo not shown) [Example 52, 5,7-dicyclopropyl-3-(2-(3-fluoropyridin-2-yl)-6-methyl-3,4-dihydro-2H-chromen-7-yl)-3,4-dihydropyrido[4,3-d]pyrimidin-2(1H)-one] | 115 |
| Cc1ccc(OCc2ncccc2F)cc1-n1c(=O)[nH]c2cc(OCC3CC3)ccc2c1=O [Example 349, 7-(cyclopropylmethoxy)-3-(5-((3-fluoropyridin-2-yl)methoxy)-2-methylphenyl)quinazoline-2,4(1H,3H)-dione] | 105 |
| Cc1ccc(OCc2ncccc2F)cc1N1Cc2ccc(Cl)cc2NC1=O [Example 244, 7-chloro-3-(5-((3-fluoropyridin-2-yl)methoxy)-2-methylphenyl)-3,4-dihydroquinazolin-2(1H)-one] | 113 |
| COc1cccnc1C1CCc2cc(Cl)c(N3Cc4c(ccnc4C4CC4)NC3=O)cc2O1 (stereo not shown) [Example 64, 3-(6-chloro-2-(3-methoxypyridin-2-yl)-3,4-dihydro-2H-chromen-7-yl)-5-cyclopropyl-3,4-dihydropyrido[4,3-d]pyrimidin-2(1H)-one] | 94 |
| O=C1OCCN1c1cc2c(c(C3CC3)n1)CN(c1cc3c(cc1Cl)CCC(c1ncccc1F)O3)C(=O)N2 (stereo not shown) [Example 113, 3-(6-chloro-2-(3-fluoropyridin-2-yl)-3,4-dihydro-2H-chromen-7-yl)-5-cyclopropyl-7-(2-oxo-1,3-oxazolidin-3-yl)-3,4-dihydropyrido[4,3-d]pyrimidin-2(1H)-one] | 114 |
| Cc1cc2c(cc1N1Cc3c(C(F)(F)F)ncc(/C=C/C(=O)O)c3NC1=O)OC(c1ncccc1F)CC2 (stereo not shown) [Example 92, (2E)-3-(3-(2-(3-fluoropyridin-2-yl)-6-methyl-3,4-dihydro-2H-chromen-7-yl)-2-oxo-5-(trifluoromethyl)-1,2,3,4-tetrahydropyrido[4,3-d]pyrimidine-8-yl)acrylic acid] | 106 |
| CCCCOC(=O)CCc1ccc(OCc2ncccc2F)cc1N1Cc2ccccc2NC1=O [Example 228, butyl 3-(4-((3-fluoropyridin-2-yl)methoxy)-2-(2-oxo-1,4-dihydroquinazolin-3(2H)-yl)phenyl)propanoate] | 95 |
| CC(=O)c1nccc2c1CN(c1cc3c(cc1C)CCC(c1ncccc1F)O3)C(=O)N2 (stereo not shown) [Example 34, 5-acetyl-3-(2-(3-fluoropyridin-2-yl)-6-methyl-3,4-dihydro-2H-chromen-7-yl)-3,4-dihydropyrido[4,3-d]pyrimidin-2(1H)-one] | 111 |
| O=C1Nc2cncc(C(F)(F)F)c2CN1c1cc2c(cc1Cl)CCC(c1ncccc1F)O2 (stereo not shown) [Example 78, 3-(6-chloro-2-(3-fluoropyridin-2-yl)-3,4-dihydro-2H-chromen-7-yl)-5-(trifluoromethyl)-3,4-dihydropyrido[3,4-d]pyrimidin-2(1H)-one] | 105 |
| Cc1ccc(OCc2c(F)cccc2F)cc1N1Cc2c(cccc2C(C)(C)O)NC1=O [Example 202, 3-(5-((2,6-difluorobenzyl)oxy)-2-methylphenyl)-5-(2-hydroxypropan-2-yl)-3,4-dihydroquinazolin-2(1H)-one] | 72 |
| Cc1ccc(OCc2ncccc2F)cc1-n1c(=O)[nH]c2c(Cl)cccc2c1=O [Example 347, 8-chloro-3-(5-((3-fluoropyridin-2-yl)methoxy)-2-methylphenyl)quinazoline-2,4(1H,3H)-dione] | 110 |
| Cc1cc2c(cc1N1Cc3c(Cl)cnc(-c4c(C)noc4C)c3NC1=O)OC(c1ncccc1F)CC2 (stereo not shown) [Example 10, 5-chloro-8-(3,5-dimethyl-1,2-oxazol-4-yl)-3-(2-(3-fluoropyridin-2-yl)-6-methyl-3,4-dihydro-2H-chromen-7-yl)-3,4-dihydropyrido[3,4-d]pyrimidin-2(1H)-one] | 94 |
